Assay results taken from article PMC12677843, “Multidisciplinary Preclinical Investigations on Ferrocenyl, Ruthenocenyl, and Benzyl Derivatives of Niridazole as New Drug Candidates against Schistosomiasis” (Chemmedchem, 2025).
Entries after “also recorded” stand apart in the source; their conditions may differ.

Columns and labels:
SH-SY5Y cells = test: SYTOX cell viability assay, SH-SY5Y; type: cell-based, human; conditions: 20 µM, 24 h, serum-free charcoal-treated medium, vs DMSO control (0.2%), mean
Procedure: The SYTOX cell viability assay was performed in SHSY5Y cells. Cells were treated with either compound (20 µM) or DMSO control (0.2%) for 24 h at 37 °C and 5% CO2 in serum‐free charcoal‐treated medium. Results were normalized to the DMSO control. Mean ± SD was calculated from three independent experiments, each performed in quadruplicate. […]
serum-free media containing either treatment at a concentration of 20 µM or DMSO (ITW Reagents Cat A3672) control (0.2 %).
Following 24 h of incubation, 12.5 μL of an XTT/phenazine methosulfate (PMS) (XTT Sigma Aldrich cat X4626, PMS Serva CAT: 3203) 0.02solution (1 mg/mL XTT and 7.5 μg/mL PMS) was added to each well. Absorbance was measured using a microplate reader (Biotek Synergy HT) at 450 nm (signal) and 650 nm (background), 2 h after the addition of the XTT/PMS solution. Individual backgrounds were subtracted and all results were normalized to DMSO control. Mean ± SD was determined from three independent experiments, each performed in quintuplicate.
SYTOX cell viability assay
The cytotoxic potential was additionally evaluated using the staining-based SYTOX viability assay. […] Data was acquired on the BioTeck Cytation5 microscope and evaluated by the manufacturer’s software (Gen5 Image Prime Version 3.12). […] Mean ± SD was determined from three independent experiments, each performed in quadruplicate. […]

[1] = tested on: S. mansoni newly transformed schistosomula (NTS); test: In vitro evaluation on newly transformed schistosomula (NTS); type: cell-based, Schistosoma mansoni; conditions: for EC50: 72 h incubation, 37 °C, 5% CO2
Procedure: 2. Experimental section for biological experiments
Stock solutions of the test compounds
Stock solution of a concentration of 10 mM in pure DMSO (Sigma-Aldrich, Switzerland) were prepared of the 12 compounds, these stock solutions were used for all in vitro evaluations from activity tests in S. mansoni to the cytotoxic determinations in HUH7 hepatocyte-derived carcinoma cells, and in SH-SY5Y neuroblastoma cells.
The solutions were thoroughly vortexed and sonicated to enable a good dissolution of the compounds and homogenous stock solutions.
2.1 In vitro evaluations in S. mansoni
In vitro evaluation on newly transformed schistosomula (NTS)
To obtain newly transformed schistosomula (NTS) the lifecycle of S. mansoni (strain originates from West Africa, Liberia) is maintained at the Swiss Tropical and Public Health Institute (Swiss TPH). As previously described, cercariae are collected from infected Biomphalaria glabrata snails and then mechanically transformed into NTS. 8 After HBSS (Gibco, Waltham MA, USA) washing to get rid of the detached tails, the NTS were kept overnight (min. 12 h, max. 24 h) in culture medium at 37 °C and 5 % CO2 to complete their transformation process, before the drug sensitivity assay was started. The drug assays were performed in the same culture medium consisting of medium M199 (Gibco, Waltham MA, USA) supplemented with 5 % v/v inactivated fetal calf serum (iFCS; Bioconcept AG, Allschwil, Switzerland), 1% antibiotics mixture developed by Mäser et al., 9 and 1 % penicillin 10,000 U/mL, and streptomycin 10 mg/mL solution (Sigma-Aldrich, Buchs, Switzerland). The assay was performed in a 96-well plate, with 30−40 NTS per well in a final volume of 250 μL. NTS incubated in culture medium containing 0.5 % DMSO but no drug served as negative controls.
Microscopic evaluation was performed after 24, 48 and 72 h of incubation of the parasites at 37 °C and 5 % CO 2. Their overall viability was scored from 0 (death) to 3 (full viability) by a phenotypic screening method based on their motility, morphology, […]
and granularity. […]

adult S. mansoni = test: In vitro drug sensitivity assay on adult S. mansoni (microscopic viability scoring); type: cell-based, Schistosoma mansoni; conditions: for drug effect at 50 µM on adult S. mansoni: 72 h incubation, normalized to DMSO control, active if ≥60%; for EC50: 72 h drug exposure, 37 °C, 5% CO2, read-out: EC50 on adult S. mansoni, 72 h
Procedure: Figure 3 In vitro activity at 50 µM of the 12 compounds on adult S. mansoni. Adult schistosomes were incubated in culture media for 72 h at 37 °C and 5% CO2 with either compound (50 µM) or a DMSO (0.5%) control. The viability of the worms was microscopically evaluated and scored (0—3, in 0.5 steps) every 24 h. Results are from two independent experiments, each performed in duplicate. Drug activities were normalized to the DMSO controls. Data represent mean ± SD in percentage of DMSO control. […]
In vitro evaluation on adult S. mansoni
After a week for acclimatization to the new environment with controlled conditions (temperature: 22 °C ± 2 °C, humidity: 50 % ± 10 %, 12:12 h light/dark photocycle), four-week-old female NMRI mice (Charles River, Sulzfeld, Germany) were subcutaneously infected with approximately 100 cercariae to establish the S. mansoni infection. In the S. mansoni infected mice the worms were allowed to develop for 7 weeks into the adult stage, before they were extracted from the mesenteric veins of the euthanized mice. The adult worms were placed into RPMI 1640 (Gibco, Waltham MA, USA) medium supplemented with 1 % penicillin/streptomycin mixture and 5 % iFCS at 37 °C and 5 % CO 2. The drug sensitivity assay was set up in a 24-well plate with two wells containing each two pairs of S. mansoni worms per compound and concentration.
The final volume per well was 2 mL, containing the culture medium and the corresponding amount of drug dissolved in DMSO. The maximum concentration tested was 50 µM, corresponding to 0.5 % DMSO, to which all the other wells were adapted […]
to, so that all test concentrations contained always the same amount of DMSO.
Additionally, 2 wells with negative controls containing only DMSO and the culture medium were included. After an incubation period of 72 h at 37 °C and 5 % CO 2, the worms were microscopically evaluated. The drug effect was determined 24, 48 and 72 h post-exposure based on the phenotype of the adult worms, using a viability scale ranging from three referring to viable, motile worms with no change in their tegument to zero standing for the death of the worms.
All described in vitro studies with mice involved, were conducted at the Swiss Tropical and Public Health Institute, first in Basel, later in Allschwil, and had the approval by the corresponding veterinary authorities of the Canton Basel-Stadt (permit no. 2070)

[2] = Stability of A2 in DMSO-d6 with D2O (4:1) by 1H NMR; type: physicochemical; conditions: Figure S36; DMSO-d6 with D2O (4:1, v/v)
Procedure: Figure S31 DEPT spectrum of C2
1H NMR spectra for stability
Preparation of the control samples for 1H NMR analysis: Compounds B1, D1, A3 and
C2 were dissolved in DMSO- d6. Compound A2 was dissolved in DMSO- d6 with D2O
(4:1, v/v). NMR spectra were recorded in deuterated solvents on Bruker Avance-400
in the room temperature for 0, 6, 24, 30 and 48 hours or 0, 3, 6 and 24 hours. […]

juvenile S. mansoni = test: In vitro drug sensitivity assay on juvenile S. mansoni; type: cell-based, Schistosoma mansoni; conditions: 72 h incubation, 37 °C, 5% CO2
Procedure: Juvenile worms were gained through cultivation of NTS as previously described. 10 In short, NTS were obtained as described above, then directly after the mechanical transformation process the newly transformed schistosomula were placed in a special culturing medium. The culture medium consists of Panserin 401, w: L-Glutamine, serum free all-round medium (Pan Biotech, Aidenbach, Germany) supplemented with 20 % human serum and 500 U/mL penicillin, […] streptomycin (LuBioScience, Switzerland). 96-well transparent polystyrene flat bottom plates were used for the in vitro growth procedure, with 40 to 60 NTS per well in 100 µL culture medium. The bordering wells of the plate were filled solely with medium to counteract evaporation and to keep the humidity as steady as possible. The plates were incubated for 21 days at 5 % CO2 and at 37 °C, with regular medium changes every 3 to 4 days. After the 21 days culturing period, the schistosomulae developed into juveniles. For the drug sensitivity assay, juvenile worms were incubated over 72 h (5 % CO 2 and 37 °C) with the test compound in the same medium, as used for the culturing process. In a 96-well plate, 250 µL medium containing the test compound and six juvenile worms, ideally of both sexes were placed in each well. All compounds were tested twice independently at 50, 10, 5 and 1 µM in duplicates. The viability of the worms was evaluated microscopically after 24, 48 and 72 h of continuous drug exposure using the same phenotypic screening method as described before. […]

Structure (SMILES) | reduction of SH-SY5Y cell viability (SYTOX) (SH-SY5Y cells) | EC50 [1] | drug effect at 50 µM on S. mansoni NTS ([1]; highest tested concentration 50 µM) | drug effect at 50 µM on adult S. mansoni (adult S. mansoni) | EC50 (adult S. mansoni) | mean drug effect at 10 µM on adult S. mansoni, 24 h (adult S. mansoni; 10 µM, 24 h, in percentage of DMSO control) | mean drug effect at 10 µM on adult S. mansoni, 48 h (adult S. mansoni; 10 µM, 48 h, in percentage of DMSO control) | mean drug effect at 10 µM on adult S. mansoni, 72 h (adult S. mansoni; 10 µM, 72 h, in percentage of DMSO control) | stability under warm and moist conditions [2] | EC50 (juvenile S. mansoni)
O=C(Nc1ncc([N+](=O)[O-])s1)[c-]1cccc1.[Fe+2].c1cc[cH-]c1 [Compound A1] | did not alter SH‐SY5Y cell viability; also recorded: inactive | > 50000 nM | No drug effect | No drug effect | > 50 µM | – | – | – | – | –
O=C([c-]1cccc1)N1CCN(c2ncc([N+](=O)[O-])s2)C1=O.[Fe+2].c1cc[cH-]c1 [Compound A2] | – | 2000 nM | – | more active | 8.2 µM | 36.97% | 46.61% | 56.40% | stable | 6.35 µM
